The subject of one experiment is Staph. aureus (Smith). Nature of the experiment: In vivo mouse protection test (CD50, 7-day survival after intraperitoneal infection). Set-up: species or system Charles River mice. Particulars: peptide alone, subcutaneous, e.g. 1 and 5 hours post-infection, mice infected i.p. with 10-100 x LD50 Staph. aureus (Smith). Here is the method: Charles River mice weighing approximately 20 g. each, were infected intraperitoneally with 10-100 times the LD50 of the infecting organism. At predetermined intervals post-infection, e.g., 1 and 5 hours, mice were dosed subcutaneously with graded doses of the new dipeptide, antibiotic and a combination thereof. The number of mice surviving each treatment for 7 days post-infection was observed and the CD50 is calculated. The results using D-cycloserine as an example of the antiobiotic and representative fluorinated dipeptides are shown in Table II, using Staph. aureus (Smith) as the infecting organism. The values are listed in mg./kg.

In a further experiment the test system is Enterococcus 89. Nature of the experiment: Minimum inhibitory concentration, serial dilution in synthetic bacterial growth medium. Particulars: 35-37 °C, 16-20 hours. It is filed as cell-based. Here is the method: (§1) The above fluorinated dipeptides are prepared in sterile concentrated aqueous solutions. Serial dilutions are made to give a range of concentrations of the test substances. Samples of the dilutions are mixed with an appropriate sterile synthetic bacterial growth medium in test tubes. The tubes are then inoculated with an appropriate test organism and incubated at 35°-37° C. for 16-20 hours. […]

For the next experiment, the system named is Strep. faecalis 10541. The description is as above. It is filed as cell-based. Particulars: 35-37 °C, 16-20 hours, value in parentheses: a higher concentration did not always inhibit growth. On the procedure:
as §1

A further experiment relates to Bacillus subtilis 9466. Described as above. Particulars: 35-37 °C, 16-20 hours, value in parentheses: a higher concentration did not always inhibit growth. It is filed as cell-based. On the procedure: as §1
The test system of the next experiment is Staph. aureus Smith. The description is as above. It is filed as cell-based. Particulars: 35-37 °C, 16-20 hours, value in parentheses: a higher concentration did not always inhibit growth. On the procedure: as §1
The test system of another experiment is E. coli Juhl. Described as above. It is filed as cell-based. Particulars: 35-37 °C, 16-20 hours, value in parentheses: a higher concentration did not always inhibit growth. Here is the method:
as §1

In another experiment the test system is Shigella sonnei 9290. The experiment is described as above. It is filed as cell-based. Particulars: 35-37 °C, 16-20 hours, value in parentheses: a higher concentration did not always inhibit growth. Here is the method:
as §1

In a further experiment the test system is Kleb. pneumonise 8045. Described as above. It is filed as cell-based. Particulars: 35-37 °C, 16-20 hours, value in parentheses: a higher concentration did not always inhibit growth. On the procedure:
as §1

Each structure is given as a SMILES string.

On to `C[C@H](NC(=O)[C@H](N)CF)C(=O)O` [Example 1, β-fluoro-D-alanyl-L-alanine], for which, in the experiment on Staph. aureus (Smith), the “CD50, Peptide” value is 9.4 mg/kg. This compound also displayed a Minimum inhibitory concentration in the experiment with Enterococcus 89 of 200.
In the case of `N[C@H](CF)C(=O)N[C@@H](Cc1ccccc1)C(=O)O` [Example 2, β-fluoro-D-alanyl-L-phenylalanine], the “CD50, Peptide” value in the experiment with Staph. aureus (Smith) fell in the range of 75 to 150 mg/kg. Also, the Minimum inhibitory concentration with Strep. faecalis 10541 is listed as 0.78; with Bacillus subtilis 9466, 3.1; in the experiment with Enterococcus 89, 25.
Take `N[C@H](CF)C(=O)N[C@@H](CCC(=O)O)C(=O)O` [Example 3, βF-D-Ala-L-Glu]: the Minimum inhibitory concentration worked out at 50 in the experiment with Strep. faecalis 10541, 800 in the experiment on Staph. aureus Smith, 3.1 in the experiment with Bacillus subtilis 9466 and 25 in the experiment on Enterococcus 89.
`CC(C)C[C@H](NC(=O)[C@H](N)CF)C(=O)O` [Example 4, F-D-Ala-L-Leu]: the Minimum inhibitory concentration in the experiment with E. coli Juhl is reported as 800; with Strep. faecalis 10541, 3.1; with Shigella sonnei 9290, 800; in the experiment with Staph. aureus Smith, 800; in the experiment with Bacillus subtilis 9466 it was 6.2; in the experiment with Enterococcus 89, 25. The Minimum inhibitory concentration in the experiment on Kleb. pneumonise 8045 was found to be 800.
With `CC(C)(NC(=O)[C@H](N)CF)C(=O)O` [Example 5, βF-D-Ala-Aibu], the Minimum inhibitory concentration stood at 800 in the experiment on Strep. faecalis 10541, 800 in the experiment on Staph. aureus Smith, 25 with Enterococcus 89 and 800 in the experiment on Kleb. pneumonise 8045.
Consider `CC(C)[C@H](NC(=O)[C@H](N)CF)C(=O)O` [Example 6, βF-D-Ala-L-Val], for which the Minimum inhibitory concentration with E. coli Juhl was found to be 800; in the experiment on Staph. aureus Smith, 800; in the experiment with Enterococcus 89, 6.2; with Kleb. pneumonise 8045, 800.

The values are drawn from US4309342A, “Antibacterial peptides” (Abbott Laboratories, priority 1980, dated 1982).
